The values below are quoted from earlier work in patent US6974895B1, “Transgenic legume plants modified to produce resveratrol glucoside and uses thereof” (The Samuel Roberts Noble Foundation, Inc., priority 1999, dated 2005).

The test system of this data set is aberrant colon crypt formation. The note with it: azoxymethane treated rat model (Steele, et al. 1998).

Each structure is given as a SMILES string.

Take `Oc1ccc(C=Cc2cc(O)cc(O)c2)cc1` [resveratrol, 3,5,4′-trihydroxystilbene]: the “inhibition of aberrant colon crypt formation” value was “significant inhibition”.
